The record followed here is ChEMBL document CHEMBL3872277, “1-Heteroarylpropan-2-ones as inhibitors of fatty acid amide hydrolase: Studies on structure-activity relationships and metabolic stability” (Bioorg Med Chem, 2017).

Values after ≈ are worked out from the molar mass of the structure shown. Where only a bound is given, the exact number is not on record here.

As a reminder, the IC50 is the midpoint of a concentration-inhibition curve. Lower therefore signals higher potency.

Data set [1] has as its target T1, Fatty-acid amide hydrolase 1 (Rattus norvegicus, UniProt P97612).
T1 sequence (P97612 whole entry): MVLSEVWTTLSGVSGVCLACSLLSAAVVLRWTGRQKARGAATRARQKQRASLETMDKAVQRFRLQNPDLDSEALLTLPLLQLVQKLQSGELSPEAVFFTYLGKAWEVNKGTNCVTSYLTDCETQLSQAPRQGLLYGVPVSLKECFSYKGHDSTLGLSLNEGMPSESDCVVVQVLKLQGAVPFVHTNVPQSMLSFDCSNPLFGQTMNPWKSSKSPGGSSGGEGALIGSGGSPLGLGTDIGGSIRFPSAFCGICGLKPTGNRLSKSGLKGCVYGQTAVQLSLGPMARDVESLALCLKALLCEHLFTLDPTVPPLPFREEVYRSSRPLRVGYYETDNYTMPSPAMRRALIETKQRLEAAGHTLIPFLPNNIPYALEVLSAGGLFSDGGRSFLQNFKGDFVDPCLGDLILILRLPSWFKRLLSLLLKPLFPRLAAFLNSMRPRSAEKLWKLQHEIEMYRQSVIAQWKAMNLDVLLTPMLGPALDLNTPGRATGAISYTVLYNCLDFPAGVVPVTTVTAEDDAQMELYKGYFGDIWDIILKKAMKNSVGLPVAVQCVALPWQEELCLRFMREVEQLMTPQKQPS
Kind of data set: Inhibition of FAAH in rat brain microsomes using N-(2-hydroxyethyl)-4-pyren-1-ylbutanamide as substrate after 60 mins by fluorescence-based reversed phase HPLC analysis.

The nature of data set [2]: Inhibition of pig platelet cytosolic phospholipase A2alpha using 1-stearoyl-2-arachidonoyl-sn-glycero-3-phosphocholine/1,2-dioleoyl-sn-glycerol as substrate after 60 mins by reversed phase HPLC-UV detection analysis. Also on record: species or system Sus scrofa.
Data set [3] in a line: Ratio of IC50 for pig platelet cytosolic phospholipase A2alpha to IC50 for FAAH in rat brain microsomes.
A short description of data set [4]: Drug metabolism in rat liver S9 fraction assessed as alcohol derivative metabolite formation after 30 mins under aerobic conditions in presence of NADPH by reversed HPLC/MS analysis. The format is ADME, subcellular. As to conditions: s9, 0.5 h.
The nature of data set [5]: Metabolic stability in rat liver S9 fraction assessed as amount of parent compound remaining after 30 mins under aerobic conditions in presence of NADPH by reversed HPLC -UV detection analysis. In kind it is ADME, subcellular. The conditions noted are these: for remaining at 0.5 h: liver S9 fraction, read-out: Stability; for Stability: s9, 0.5 h.
Data set [6] can be described thus: Thermodynamic aqueous solubility of the compound at pH 7.4 at 20 degC sonicated for 10 mins after 24 hrs UV-HPLC analysis. The format is physicochemical. The conditions noted are these: read-out: Therm_solubility.
Data set [7] is described as follows: Drug metabolism in rat liver S9 fraction assessed as hydroxylation product metabolite formation after 30 mins under aerobic conditions in presence of NADPH by reversed HPLC/MS analysis. The format is ADME, subcellular. As to conditions: s9, 0.5 h.

The compound `CCCCCCCCc1ccc(OCC(=O)Cn2cnc3ccccc32)cc1` showed an IC50 in data set [1] of 480 nM. This counts as sub-micromolar.

In turn, `CCCCCCCCCCOc1ccc(OCC(=O)COc2ccc(C(=O)O)cc2)cc1` came in with an IC50 in data set [2] of 6.5 nM.

`CCCCCCCCc1ccc(OCC(=O)Cn2nccn2)cc1` had a concentration for half-maximal inhibition (IC50) in data set [1] of 100 nM. This counts as sub-micromolar.

In data set [1], `CCCCCCCCc1ccc(OCC(=O)Cn2cnc3cccnc32)cc1` had an IC50 of 410 nM. This IC50 lies about 4.1-fold higher than the previous one.

For `O=C(COc1ccc(-c2ccccc2)cc1)Cn1nnc2ccccc21`, in data set [3], the Ratio IC50 was 100 to 500. In addition, the Drug metabolism result in data set [4] is recorded as “Metabolite_Detected”. Also, the values for the IC50 in data set [2] and in data set [1] were 2400 nM and 12 nM, respectively. The remaining at 0.5 h in data set [5] was found to be 0%. The solubility thermodynamic at 24 h in data set [6] came to 2 µg/mL (≈ 5.82 µM).

`O=C(COc1ccc(-c2ccccc2)cc1)Cn1ncnn1`: in data set [3], the Ratio IC50 fell in the range of 100 to 500. Also, the concentration for half-maximal inhibition (IC50) in data set [2] is 1800 nM; in data set [1] it was 11 nM. Besides, the remaining at 0.5 h in data set [5] was 0%. In addition, in data set [6], the solubility thermodynamic at 24 h is 10 µg/mL (≈ 34 µM).

For the compound `O=C(COc1ccc(-c2ccc(F)cc2)cc1)Cn1nnc2ccccc21`, in data set [5], the Stability result is recorded as “Unstable”. This compound came in with a 50% inhibitory concentration (IC50) in data set [1] of 12 nM.

In the case of `CCCCCCCCc1ccc(OCC(=O)Cn2ccnc2)cc1`, 410 nM corresponded to half-maximal inhibition in data set [1] (IC50).

As for `O=C(COc1ccc(-c2ccccc2)cc1)Cn1cnnn1`, in data set [3], the Ratio IC50 is 100 to 500. In addition, the half-maximal inhibitory concentration (IC50) in data set [2] came out at 4900 nM; in data set [1], 43 nM. In addition, the remaining at 0.5 h in data set [5] amounted to 0%. For the same compound, in data set [6], the solubility thermodynamic at 24 h was determined as 11 µg/mL (≈ 37.4 µM).

With `CC(C(=O)COc1ccc(-c2ccccc2)cc1)n1cnnn1` (stereo unspecified), the remaining at 0.5 h in data set [5] worked out at 11%. Moreover, in data set [1], the half-inhibitory concentration (IC50) was > 10000 nM.

`CCCCCCCCc1ccc(OCC(=O)Cn2cccn2)cc1`: the IC50 in data set [1] came out at 840 nM.

As to `CCCCCCCCc1ccc(OCC(=O)Cn2nnc3cccnc32)cc1`, half-maximal inhibition in data set [1] (IC50) required 13 nM.

For `CCCCCCCCc1ccc(OCC(=O)Cn2nnc3ncccc32)cc1`, 49 nM corresponded to half-maximal inhibition in data set [1] (IC50). Against the preceding compound, the IC50 is about 3.8-fold higher.

In data set [1], `CCCCCCCCc1ccc(OCC(=O)Cn2cnc3ncccc32)cc1` yielded a half-maximal inhibitory concentration (IC50) of 620 nM.

Compound `CCCCCCCCc1ccc(OCC(=O)Cn2ncc3ncccc32)cc1` gave a half-inhibitory concentration (IC50) in data set [1] of 93 nM.

In the case of `O=C(COc1ccc(-c2cccc(F)c2)cc1)Cn1nnc2ccccc21`, in data set [5], the Stability result is listed as “Unstable”. The same compound yielded an IC50 in data set [1] of 14 nM.

Turning to `O=C(COc1ccc(-c2cccc(Cl)c2)cc1)Cn1nnc2ccccc21`, in data set [5], the Stability entry was “Unstable”. Moreover, the midpoint of inhibition in data set [1], the IC50, lay at 11 nM.

Compound `CCCCCCCCc1ccc(OCC(=O)Cn2ncc3ccccc32)cc1` returned an IC50 in data set [1] of 2300 nM.

Consider `CCCCCCCCc1ccc(OCC(=O)Cn2ccc3ncccc32)cc1`, for which the IC50 in data set [1] was > 10000 nM.

`O=C1NC(=O)C(c2ccccc2)(c2ccccc2)N1` [PHENYTOIN]: the solubility thermodynamic at 24 h in data set [6] worked out at 18 µg/mL (≈ 71.4 µM).

In turn, `CCCCCCCCc1ccc(OCC(=O)Cn2nnc3ccccc32)cc1` displayed an IC50 in data set [1] of 15 nM. That is a double-digit nanomolar value.

As for `CCC(Oc1ccc(-c2ccccc2)cc1)C(=O)Cn1nnc2ccccc21` (stereo unspecified), in data set [7], the Drug metabolism result was “Metabolite_Notdetected”. Further, in data set [5], the remaining at 0.5 h worked out at 51%. The same compound displayed an IC50 in data set [1] of 1800 nM.

On to `CC(Oc1ccc(-c2ccccc2)cc1)C(=O)Cn1ncnn1` (stereo unspecified), for which, in data set [3], the Ratio IC50 is 100 to 500. Besides, the 50% inhibitory concentration (IC50) was found to be 3300 nM in data set [2] and 9 nM in data set [1]. Moreover, in data set [5], the remaining at 0.5 h was determined as 0%. Besides, in data set [6], the solubility thermodynamic at 24 h turned out to be 2 µg/mL (≈ 6.49 µM).

In the case of `CCCCCCCCc1ccc(OCC(=O)Cn2cncn2)cc1`, the IC50 in data set [1] is 53 nM.

For `CC(Oc1ccc(-c2ccccc2)cc1)C(=O)Cn1nnc2ccccc21` (stereo unspecified), the Ratio IC50 in data set [3] lay in the range of 100 to 500. The half-maximal inhibitory concentration (IC50) in data set [2] stood at 6800 nM; in data set [1] it was 13 nM. Moreover, in data set [5], the remaining at 0.5 h is 23%. For the same compound, the solubility thermodynamic at 24 h in data set [6] was < 1 µg/mL.

`O=C(COc1ccc(-c2ccc(Cl)cc2)cc1)Cn1nnc2ccccc21`: in data set [5], the Stability result is “Unstable”. In data set [1], the midpoint of inhibition, the IC50, lay at 21 nM.

On to `CC(C(=O)COc1ccc(-c2ccccc2)cc1)n1nnc2ccccc21` (stereo unspecified), for which the remaining at 0.5 h in data set [5] stood at 21%. Moreover, the IC50 in data set [1] amounted to 630 nM.

For the compound `CC(Oc1ccc(-c2ccc(F)cc2)cc1)C(=O)Cn1nnc2ccccc21` (stereo unspecified), the remaining at 0.5 h in data set [5] was 29%. Half-maximal inhibition in data set [1] (IC50) was put at 12 nM.

Consider `CC(C(=O)COc1ccc(-c2ccccc2)cc1)n1ncnn1` (stereo unspecified), for which the remaining at 0.5 h in data set [5] worked out at 0%. Besides, inhibition in data set [1] was half-maximal at 6300 nM (IC50).

As for `CCCCCCCCc1ccc(OCC(=O)Cn2ncc3cccnc32)cc1`, the IC50 in data set [1] was 1600 nM.

Consider `CC(Oc1ccc(-c2ccccc2)cc1)C(=O)Cn1cnnn1` (stereo unspecified), for which the Ratio IC50 in data set [3] was in the range of 100 to 500. For the same compound, the IC50 amounted to 6900 nM in data set [2] and 19 nM in data set [1]. Moreover, the remaining at 0.5 h in data set [5] turned out to be 9%. Further, in data set [6], the solubility thermodynamic at 24 h was 4 µg/mL (≈ 13 µM).
